In assay [1] the test system is Pfeiffer cell line (diffuse large B cell lymphoma). The assay is described as follows: Pfeiffer cell proliferation assay. The conditions noted are these: Pfeiffer cells, 3-4 days plus 12 hours [3H]-thymidine incorporation. Format: cell-based. Here is the method: Example C: Pfeiffer Cell Proliferation Assay
Pfeiffer cell line (diffuse large B cell lymphoma) was purchased from ATCC (Manassas, Va.) and maintained in the culture medium recommended (RPMI and 10% FBS). To measure the anti-proliferation activity of the compounds, the Pfeiffer cells were plated with the culture medium (2×10^3 cells/well/per 200 μl) into 96-well ultra-low binding plates (Corning, Corning, N.Y.), in the presence or absence of a concentration range of test compounds. After 3-4 days, [^3H]-thymidine (1 μCi/well) (PerkinElmer, Boston, Mass.) in PBS was then added to the cell culture for an additional 12 hours before the incorporated radioactivity was separated by filtration with water through GF/B filters (Packard Bioscience, Meridenj, Conn.) and measured by liquid scintillation counting with a TopCount (Packard Bioscience).
Background: Incorporation of labelled thymidine or its analogues reports DNA synthesis.

For the next assay, the target named is T1, PI3Kδ (p110δ/p85α) (Homo sapiens, UniProt O00329).
T1 construct: purchased Millipore (Bedford, Mass.)
The assay is described as follows: PI3Kδ scintillation proximity assay. The format is biochemical. The conditions noted are these: 20 μM ATP, 4 nM PI3Kδ. In outline:
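p110δ/p85α (4 nM) phosphorylated 20 μM PIP2 with 20 μM ATP plus [γ-33P]ATP in 20 mM MOPS pH 6.7, 10 mM MgCl2, 5 mM DTT, 0.03% CHAPS, 0.5% DMSO, 210 min at room temperature. EDTA quench, WGA SPA bead capture, scintillation counting; IC50 from log-concentration fit.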

pIC50: −log10 of the molar value. Where a name gives a salt, the structure may show the parent alone.

T1 sequence (O00329 whole entry, species assumed): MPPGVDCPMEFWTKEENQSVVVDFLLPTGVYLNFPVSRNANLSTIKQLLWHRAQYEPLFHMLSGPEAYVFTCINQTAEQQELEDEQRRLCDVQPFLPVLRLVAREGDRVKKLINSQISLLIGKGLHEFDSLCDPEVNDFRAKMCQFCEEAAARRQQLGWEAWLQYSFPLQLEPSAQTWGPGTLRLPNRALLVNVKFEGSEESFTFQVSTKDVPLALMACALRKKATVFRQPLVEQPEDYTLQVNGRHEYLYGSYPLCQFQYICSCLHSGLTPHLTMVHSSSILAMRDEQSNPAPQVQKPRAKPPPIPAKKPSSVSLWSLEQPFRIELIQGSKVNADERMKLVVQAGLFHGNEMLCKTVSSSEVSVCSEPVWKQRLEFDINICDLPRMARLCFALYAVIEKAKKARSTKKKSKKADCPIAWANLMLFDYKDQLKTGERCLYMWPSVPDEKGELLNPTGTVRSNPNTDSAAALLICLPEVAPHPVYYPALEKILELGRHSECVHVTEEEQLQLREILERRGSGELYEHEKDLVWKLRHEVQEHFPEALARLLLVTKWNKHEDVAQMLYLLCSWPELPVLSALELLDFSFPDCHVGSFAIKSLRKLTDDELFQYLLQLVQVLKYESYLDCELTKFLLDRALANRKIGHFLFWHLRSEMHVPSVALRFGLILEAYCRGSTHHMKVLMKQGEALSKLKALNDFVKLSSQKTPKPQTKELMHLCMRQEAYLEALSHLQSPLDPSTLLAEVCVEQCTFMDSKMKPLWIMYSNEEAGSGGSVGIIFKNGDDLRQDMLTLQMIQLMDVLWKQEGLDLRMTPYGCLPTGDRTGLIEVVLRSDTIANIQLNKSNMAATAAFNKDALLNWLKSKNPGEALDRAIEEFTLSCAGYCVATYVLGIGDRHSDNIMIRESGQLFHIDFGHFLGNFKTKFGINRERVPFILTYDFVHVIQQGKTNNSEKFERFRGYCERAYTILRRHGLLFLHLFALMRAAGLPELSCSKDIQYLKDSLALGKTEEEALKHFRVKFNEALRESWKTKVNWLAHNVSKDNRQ
T1 sequence (P27986 whole entry partner, species assumed): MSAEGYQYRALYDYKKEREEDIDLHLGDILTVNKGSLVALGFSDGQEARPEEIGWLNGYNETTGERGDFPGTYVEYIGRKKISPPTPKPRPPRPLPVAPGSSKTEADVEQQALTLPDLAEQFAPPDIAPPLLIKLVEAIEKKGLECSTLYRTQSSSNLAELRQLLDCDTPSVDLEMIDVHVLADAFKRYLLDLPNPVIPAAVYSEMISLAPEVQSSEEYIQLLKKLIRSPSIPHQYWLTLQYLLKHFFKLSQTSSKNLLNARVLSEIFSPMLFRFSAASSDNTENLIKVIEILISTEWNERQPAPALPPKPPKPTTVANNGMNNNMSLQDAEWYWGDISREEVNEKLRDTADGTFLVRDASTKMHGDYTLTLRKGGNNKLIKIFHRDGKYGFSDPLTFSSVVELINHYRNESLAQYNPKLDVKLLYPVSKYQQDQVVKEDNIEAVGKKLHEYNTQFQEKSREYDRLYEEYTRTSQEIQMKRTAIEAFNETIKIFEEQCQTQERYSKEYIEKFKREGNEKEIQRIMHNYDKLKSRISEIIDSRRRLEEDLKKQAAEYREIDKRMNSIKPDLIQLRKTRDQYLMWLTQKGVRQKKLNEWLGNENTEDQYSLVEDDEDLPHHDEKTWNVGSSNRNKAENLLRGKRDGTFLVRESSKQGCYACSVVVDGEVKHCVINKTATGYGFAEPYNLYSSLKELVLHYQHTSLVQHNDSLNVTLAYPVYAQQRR

For the molecule `Cc1c(Cl)cc(C(C)Nc2ncnc3[nH]cnc23)c(-c2cccc(F)c2)c1C#N` (stereo not shown) [Example 1, 4-Chloro-3′-fluoro-3-methyl-6-[1-(9H-purin-6-ylamino)ethyl]biphenyl-2-carbonitrile], the pIC50 in assay [1] (Homo sapiens, Pfeiffer) is 6.00 to 6.30. On to `Cc1c(Cl)cc(C(C)Nc2ncnc3[nH]cnc23)c(-c2cccc(F)c2)c1C(N)=O` (stereo not shown) [Example 2, 4-Chloro-3′-fluoro-3-methyl-6-[1-(9H-purin-6-ylamino)ethyl]biphenyl-2-carboxamide], for which the negative logarithm of the IC50 (pIC50) against PI3Kδ (p110δ/p85α) was more than 7.30; in assay [1] (Homo sapiens, Pfeiffer), more than 7.00. Taken in the same sequence, the figures for `Cc1c(Cl)cc(C(C)Nc2ncnc3[nH]cnc23)c(-c2cccc(F)c2)c1[N+](=O)[O-]` (stereo not shown) [Example 3, N-[1-(4-chloro-3′-fluoro-5-methyl-6-nitrobiphenyl-2-yl)ethyl]-9H-purin-6-amine] were 6.60 to 7.00 and less than 6.00. As for `Cc1c(Cl)cc(C(C)Nc2ncnc3[nH]cnc23)c(-c2cccc(F)c2)c1N1CCCC1=O` (stereo not shown) [Example 5, 1-{4-Chloro-3′-fluoro-3-methyl-6-[1-(9H-purin-6-ylamino)ethyl]biphenyl-2-yl}pyrrolidin-2-one], the negative-log IC50 (pIC50) was more than 7.30 on PI3Kδ (p110δ/p85α) and more than 7.00 in assay [1] (Homo sapiens, Pfeiffer). Taken in the same sequence, the figures for `Cc1c(Cl)cc(C(C)Nc2ncnc3[nH]cnc23)c(-c2cc(F)cc(F)c2)c1N1CCCC1=O` (stereo not shown) [Example 6, 1-{4-Chloro-3′,5′-difluoro-3-methyl-6-[1-(9H-purin-6-ylamino)ethyl]biphenyl-2-yl}pyrrolidin-2-one trifluoroacetate] were more than 7.30 and more than 7.00. Taken in the same sequence, the figures for `Cc1c(Cl)cc(C(C)Nc2ncnc3[nH]cnc23)c(-c2cccc(F)c2)c1N1CCOC1=O` (stereo not shown) [Example 7, 3-{4-Chloro-3′-fluoro-3-methyl-6-[1-(9H-purin-6-ylamino)ethyl]biphenyl-2-yl}-1,3-oxazolidin-2-one] were more than 7.30 and more than 7.00.

On to `Cc1c(Cl)cc(C(C)Nc2ncnc3[nH]cnc23)c(-c2cccc(F)c2)c1-c1nnn[nH]1` (stereo not shown) [Example 8, N-{1-[4-chloro-3′-fluoro-5-methyl-6-(1H-tetrazol-5-yl)biphenyl-2-yl]ethyl}-9H-purin-6-amine], for which the pIC50 against PI3Kδ (p110δ/p85α) was more than 7.30; in assay [1] (Homo sapiens, Pfeiffer) it was less than 6.00. Taken in the same sequence, the figures for `CC(=O)Nc1c(C)c(Cl)cc(C(C)Nc2ncnc3[nH]cnc23)c1-c1cccc(F)c1` (stereo not shown) [Example 9, N-{4-chloro-3′-fluoro-3-methyl-6-[1-(9H-purin-6-ylamino)ethyl]biphenyl-2-yl}acetamide] were 7.00 to 7.30 and 6.30 to 7.00.

Regarding `COc1c(C(C)Nc2ncnc3[nH]cnc23)cc(Cl)c(C)c1-c1ccc(S(C)(=O)=O)cc1` (stereo not shown) [Example 32, N-{1-[5-chloro-2-methoxy-6-methyl-4′-(methylsulfonyl)biphenyl-3-yl]ethyl}-9H-purin-6-amine], the pIC50 in assay [1] (Homo sapiens, Pfeiffer) is more than 7.00.

Turning to `COc1c(C(C)Nc2ncnc3[nH]cnc23)cc(Cl)c(C)c1-c1cnc(N)nc1` (stereo not shown) [Example 33, N-{1-[3-(2-aminopyrimidin-5-yl)-5-chloro-2-methoxy-4-methylphenyl]ethyl}-9H-purin-6-amine], in assay [1] (Homo sapiens, Pfeiffer), the pIC50 is more than 7.00. Regarding `COc1c(C(C)Nc2ncnc3[nH]cnc23)cc(Cl)c(C)c1-c1cc(F)ccc1F` (stereo not shown) [Example 50, N-[1-(5-chloro-2′,5′-difluoro-2-methoxy-6-methylbiphenyl-3-yl)ethyl]-9H-purin-6-amine], the pIC50 in assay [1] (Homo sapiens, Pfeiffer) is less than 6.00; in assay [1], 6.00 to 6.30. Take `COc1c(C(C)Nc2ncnc3[nH]cnc23)cc(Cl)c(C)c1-c1cncc(C#N)c1` (stereo not shown) [Example 53, 5-{3-chloro-6-methoxy-2-methyl-5-[1-(9H-purin-6-ylamino)ethyl]phenyl}nicotinonitrile]: the negative logarithm of the IC50 (pIC50) in assay [1] (Homo sapiens, Pfeiffer) is more than 7.00. For `Cc1c(Cl)cc(C(C)Nc2ncnc3[nH]cnc23)c(-c2cccc(F)c2)c1-c1cnn(C)c1` (stereo not shown) [Example 73, N-{1-[4-chloro-3′-fluoro-5-methyl-6-(1-methyl-1H-pyrazol-4-yl)biphenyl-2-yl]ethyl}-9H-purin-6-amine], in assay [1] (Homo sapiens, Pfeiffer), the negative-log IC50 (pIC50) was more than 7.00. Still for that read-out and setting: in the case of `COc1c(C(C)Nc2ncnc3[nH]cnc23)cc(Cl)c(C)c1-c1cc(C(F)(F)F)ccc1F` (stereo not shown) [Example 86, N-{1-[5-chloro-2′-fluoro-2-methoxy-6-methyl-5′-(trifluoromethyl)biphenyl-3-yl]ethyl]-9H-purin-6-ami] it was less than 6.00. In turn, `COc1c(C(C)Nc2ncnc3[nH]cnc23)cc(Cl)c(C)c1C1CN(C(C)C)C(=O)O1` (stereo not shown) [Example 189, 5-{3-Chloro-6-methoxy-2-methyl-5-[1-(9H-purin-6-ylamino)ethyl]phenyl}-3-isopropyl-1,3-oxazolidin-2-one trifluoroacetate] showed a pIC50 at PI3Kδ (p110δ/p85α) of more than 7.30. In turn, `COc1c(C(C)Nc2ncnc3[nH]cnc23)cc(Cl)c(C)c1C(O)CN1CCOCC1` (stereo not shown) [Example 190, 1-{3-Chloro-6-methoxy-2-methyl-5-[1-(9H-purin-6-ylamino)ethyl]phenyl}-2-morpholin-4-ylethanol bis(trifluoroacetate)] showed a pIC50 against PI3Kδ (p110δ/p85α) of more than 7.30.

Consider `COc1c(C(C)Nc2ncnc3[nH]cnc23)cc(Cl)c(C)c1C1CN(C(C)C)C(=O)CO1` (stereo not shown) [Example 191, 6-{3-Chloro-6-methoxy-2-methyl-5-[1-(9H-purin-6-ylamino)ethyl]phenyl}-4-isopropylmorpholin-3-one trifluoroacetate], for which, on PI3Kδ (p110δ/p85α), the pIC50 is more than 7.30. Still for that read-out and setting: the figure for `COc1c(C(C)Nc2ncnc3[nH]cnc23)cc(Cl)c(Cl)c1C1CN(C(C)C(F)(F)F)C1` (stereo not shown) [Example 198, N-(1-{4,5-Dichloro-2-methoxy-3-[1-(2,2,2-trifluoro-1-methylethyl)azetidin-3-yl]phenyl}ethyl)-9H-purin-6-amine bistrifluoroacetate] is more than 7.30. The same measure, in the same setting: in the case of `COc1c(C(C)Nc2ncnc3[nH]cnc23)cc(Cl)c(Cl)c1C1CN(CC#N)C1` (stereo not shown) [Example 206, (3-{2,3-Dichloro-6-methoxy-5-[1-(9H-purin-6-ylamino)ethyl]phenyl}azetidin-1-yl)acetonitrile bis(trifluoroacetate)] it was more than 7.30. The same measure, in the same setting: the figure for `COc1c(C(C)Nc2ncnc3[nH]cnc23)cc(Cl)c(Cl)c1C1CN(CC(F)(F)F)C1` (stereo not shown) [Example 207, N-(1-{4,5-Dichloro-2-methoxy-3-[1-(2,2,2-trifluoroethyl)azetidin-3-yl]phenyl}ethyl)-9H-purin-6-amine bis(trifluoroacetate)] is more than 7.30; for `COc1c(C(C)Nc2ncnc3[nH]cnc23)cc(Cl)c(Cl)c1C1CN(C2CCC2)C1` (stereo not shown) [Example 209, N-{1-[4,5-Dichloro-3-(1-cyclobutylazetidin-3-yl)-2-methoxyphenyl]ethyl}-9H-purin-6-amine bistrifluoroacetate] it is more than 7.30; for `COc1c(C(C)Nc2ncnc3[nH]cnc23)cc(Cl)c(Cl)c1C1CN(CC(F)F)C1` (stereo not shown) [Example 210, N-(1-{4,5-Dichloro-3-[1-(2,2-difluoroethyl)azetidin-3-yl]-2-methoxyphenyl}ethyl)-9H-purin-6-amine bis(trifluoroacetate)] it is more than 7.30. `CCOc1c(C(C)Nc2ncnc3[nH]cnc23)cc(C#N)c(F)c1-c1ccc(C(=O)N(C)C)nc1` (stereo not shown) [Example 211, 5-{3-Cyano-6-ethoxy-2-fluoro-5-[1-(9H-purin-6-ylamino)ethyl]phenyl}-N,N-dimethylpyridine-2-carboxamide bis(trifluoroacetate)]: the negative-log IC50 (pIC50) on PI3Kδ (p110δ/p85α) is more than 7.30.

By pIC50 is commonly meant the negative decadic logarithm of the IC50, by convention in mol/L.
